Results reported in article PMC10220883, “Relating Molecular Dynamics Simulations to Functional Activity for Gly-Rich Membranolytic Helical Kiadin Peptides” (Pharmaceutics, 2023).
No end group written: not given here.

Biological target: not listed separately
Assay: Surface plasmon resonance binding to immobilized liposomes
Details: SPR, L1 chip with DOPC LUVs, PBS, 0.5 to 16 μM peptide, affinity-steady state model; estimated; repeated three times; read-out: KD (equilibrium dissociation constant)
Protocol: Large unilamellar vesicles (LUVs) were prepared as described by Morgera et al.. Briefly, dry 1,2-dioleoyl-sn-glycero-3-phosphocholine (DOPC) or phosphatidylglycerol:diphosphatidylglycerol (DPPG) was dissolved in chloroform/methanol (2:1) solution, then evaporated using a dry nitrogen stream and vacuum-dried for 24 h. The liposome cake was resuspended in 1 mL of sodium phosphate buffer (SPB) to a concentration of 5 mM phospholipid and spun for 1 h at 40 °C. The vesicles were then subjected to several freeze–thaw cycles before passing through a mini-extruder (Avanti Polar Lipids, Alabaster, AL, USA) with successive polycarbonate filters having 1, 0.4 and 0.1 μm pores before resuspending to a final phospholipid concentration of 0.4 mM. By calculating the surface area of a ∼100 nm liposome and taking into account the average area of a phospholipid headgroup (∼0.7 nm^2) (similar to the value determined in MD simulations), the concentration of the liposomes was estimated to be about 5 nM.
Peptide–membrane interactions were studied using an X-100 instrument (Biacore, GE Lifesciences). LUVs were prepared using DOPC as described above. The extruded unilamellar LUVs were then diluted to result in ~1 mM phospholipid in PBS. The L1 sensor chip was preconditioned and loaded with the LUVs, as described previously. […]

| Substance | Kd |
| --- | --- |
| KIAKVALKALKIAKVALKAL-NH2 [diPGLa-H] | ~5 µM |

System: Escherichia coli ATCC 25922
Assay: not given
Set-up: method as in PMID 29553266
Details: microdilution, Mueller–Hinton broth, 5 × 10^5 CFU/mL, overnight 37 °C, no visual growth; cited from earlier work

| Substance | E. coli MIC |
| --- | --- |
| KIAKGALKALKIAKVALKAL-NH2 [kiadin-2] | 0.25 to 0.5 mM |
| H-KIGKALGKALKALGKALGKA-NH2 [kiadin-4] | 8 mM |
| H-KIAKGALKALKIAKGALKAL-NH2 [kiadin-3] | 4 mM |
| KIAGKAGKIAKIAGKAGKIA-NH2 [kiadin-5] | >64 mM |
| KIAKVALKALKIAKVALKAL-NH2 [diPGLa-H] | 1.5 mM |
| H-KIALKALKALKALGKALKAL-NH2 [kiadin-6] | 1 to 2 mM |
| H-KIAKVALKALKIAKGALKAL-NH2 [kiadin-1] | 0.75 mM |

Same assay, conditions: no visible growth on MH agar after 18 h at 37 °C of aliquots from MIC, 2 × MIC, 4 × MIC wells; cited from earlier work

| Substance | E. coli MBC |
| --- | --- |
| KIAKGALKALKIAKVALKAL-NH2 [kiadin-2] | 0.5 to 1 mM |
| H-KIGKALGKALKALGKALGKA-NH2 [kiadin-4] | 16 mM |
| H-KIAKGALKALKIAKGALKAL-NH2 [kiadin-3] | 16 mM |
| KIAGKAGKIAKIAGKAGKIA-NH2 [kiadin-5] | >64 mM |
| KIAKVALKALKIAKVALKAL-NH2 [diPGLa-H] | 1.5 mM |
| H-KIALKALKALKALGKALKAL-NH2 [kiadin-6] | 2 to 4 mM |
| H-KIAKVALKALKIAKGALKAL-NH2 [kiadin-1] | 0.75 mM |

System: MEC-1 chronic lymphocytic leukaemia cell line
Assay: MTT cytotoxicity assay
Format: cell-based, human
Set-up: Cytotoxicity MEC-1 (qualitative score): key to the marks not given beside the values
Details: not given
Protocol: Cytotoxicity was also assessed on a human lymphocytic cell line by using the 3-(4,5-dimethylthiazol-2-yl)-2,5-diphenyl tetrazolium bromide (MTT) assay. The MEC-1 chronic lymphocytic leukaemia cell line was kindly provided by Prof. P. Macor (Department of Life Sciences, University of Trieste, IT). MEC-1 cells were cultured in RPMI 1640 complete medium supplemented with 2 mM L-glutamine, 100 U/mL penicillin, 100 µg/mL streptomycin and 10% foetal bovine serum (FBS) and were subcultured two/three times a week for not more than 20 passages. The colorimetric MTT assay was performed to assess the metabolic activity of cells plated onto 96-well culture plates (10^5 cells/well, V^f = 100 µL) that had been exposed to 5 to 50 µM kiadins for 24 h. Twenty microlitres of a stock MTT solution (5 mg/mL) were added to each well after 20 h and left to incubate for the remaining 4 h. The converted MTT dye was then solubilized with acidic isopropanol (0.04 N HCl in absolute isopropanol). Absorbance was measured at 540 and 630 nm using an automated microplate reader (EL311, BIO-TEK® Instruments, Charlotte, VT, USA). All measurements were carried out at least in triplicate. An IC50 value was estimated as the concentration of peptide causing a 50% decrease in viability, calculated using GraphPad Prism software.

| Substance | Cytotoxicity MEC-1 (qualitative score) |
| --- | --- |
| KIAKGALKALKIAKVALKAL-NH2 [kiadin-2] | ++ |
| H-KIAKVALKALKIAKGALKAL-NH2 [kiadin-1] | +++ |

Same assay, conditions: MTT, 10^5 cells/well, 5 to 50 µM peptide, 24 h, RPMI 1640 with 10% FBS; at least triplicate

| Substance | MEC-1 IC50 (concentration causing 50% decrease in viability) |
| --- | --- |
| H-KIAKGALKALKIAKGALKAL-NH2 [kiadin-3] | >50 µM |

Same assay, conditions: MTT, 24 h, tested range 5 to 50 µM

| Substance | IC50 MEC-1 cells |
| --- | --- |
| H-KIAKGALKALKIAKGALKAL-NH2 [kiadin-3] | > 50 µM |
| KIAKVALKALKIAKVALKAL-NH2 [diPGLa-H] | 9 ± 3 µM |

System: human red blood cells (RBC)
Assay: Haemolytic activity assay
Format: cell-based
Set-up: key to the marks not given beside the values
Details: not given
Protocol: Haemolytic activity was previously reported by Roncevic et al. and was evaluated by incubating 0.5% erythrocytes provided by an informed healthy donor with serially diluted peptides in 96-well microtiter plates. Haemoglobin release was monitored at 450 nm. Triton-X was used as a positive control, and the incubation of red blood cells in PBS without peptides was the negative control. A HC50 value was calculated as the concentration causing 50% haemolysis.

| Substance | Cytotoxicity RBC (qualitative score) |
| --- | --- |
| KIAKGALKALKIAKVALKAL-NH2 [kiadin-2] | ++ |
| H-KIAKVALKALKIAKGALKAL-NH2 [kiadin-1] | +++ |

System: Staphylococcus aureus ATCC 25923
Assay: not given
Set-up: method as in PMID 29553266
Details: microdilution, Mueller–Hinton broth, 5 × 10^5 CFU/mL, overnight 37 °C, no visual growth; cited from earlier work

| Substance | S. aureus MIC |
| --- | --- |
| KIAKGALKALKIAKVALKAL-NH2 [kiadin-2] | 8 to 16 mM |
| H-KIGKALGKALKALGKALGKA-NH2 [kiadin-4] | 16 to 32 mM |
| H-KIAKGALKALKIAKGALKAL-NH2 [kiadin-3] | 16 to 32 mM |
| KIAGKAGKIAKIAGKAGKIA-NH2 [kiadin-5] | >64 mM |
| KIAKVALKALKIAKVALKAL-NH2 [diPGLa-H] | 0.75 mM |
| H-KIALKALKALKALGKALKAL-NH2 [kiadin-6] | 4 mM |
| H-KIAKVALKALKIAKGALKAL-NH2 [kiadin-1] | 0.5 to 1 mM |

Same assay, conditions: no visible growth on MH agar after 18 h at 37 °C of aliquots from MIC, 2 × MIC, 4 × MIC wells; cited from earlier work

| Substance | S. aureus MBC |
| --- | --- |
| KIAKGALKALKIAKVALKAL-NH2 [kiadin-2] | 8 to 16 mM |
| H-KIGKALGKALKALGKALGKA-NH2 [kiadin-4] | 32 mM |
| H-KIAKGALKALKIAKGALKAL-NH2 [kiadin-3] | 32 mM |
| KIAGKAGKIAKIAGKAGKIA-NH2 [kiadin-5] | >64 mM |
| KIAKVALKALKIAKVALKAL-NH2 [diPGLa-H] | 1.5 mM |
| H-KIALKALKALKALGKALKAL-NH2 [kiadin-6] | 4 mM |
| H-KIAKVALKALKIAKGALKAL-NH2 [kiadin-1] | 1.5 mM |

System: human red blood cells (RBC)
Assay: not given
Details: 0.5% human erythrocytes in PBS; cited from earlier work

| Substance | HC50 (haemolytic activity, text) |
| --- | --- |
| H-KIAKGALKALKIAKGALKAL-NH2 [kiadin-3] | about 95 μM |
| KIAKVALKALKIAKVALKAL-NH2 [diPGLa-H] | about 22 μM |

Same assay, conditions: 0.5% human erythrocytes; up to highest tested concentration; cited from earlier work

| Substance | Haemolytic activity (in words) |
| --- | --- |
| KIAGKAGKIAKIAGKAGKIA-NH2 [kiadin-5] | not to be haemolytic up to the highest tested concentration |
